Data reported in patent publication US20260070895A1, “CRYSTALLINE FORMS” (QUIMATRYX, S.L., priority 2022, published 2026).
“Also recorded” adds a separate entry of the source.

What was measured:
[1] = Photostability in solution (THF and water), HPLC; format: physicochemical
Description: (§1) The method for determining purity by HPLC—used throughout these examples—used the following parameters:
(§2) The photostability of novel crystalline forms of QTX125 was assessed at solid state and in solution. Where ‘forced illumination’ conditions were used, samples were illuminated at 12 Klux/hour and 2.8 UV W/m^2/hour. Samples were stored at a temperature of 30° C. Following incubation, the chemical purity of QTX125 was measured by HPLC.
(§3) The following index is provided to aid navigation of the data presented in Tables 3.1.1 to 3.3.6: • 3.1.x—Assessment of the photostability of QTX125 Form 2. • 3.2.x—Assessment of the photostability of amorphous QTX125. • 3.3.x—Assessment of the photostability of the QTX125 1:2 L-Lysine adduct. • 3.x.1—Samples (at solid state) stored in unsealed clear glass bottles, subject to forced illumination. • 3.x.2—Samples (at solid state) sealed under nitrogen in clear glass bottles, subject to forced illumination. • 3.x.3—Samples (at solid state) sealed under nitrogen in amber glass bottles, illuminated under ambient laboratory conditions • 3.x.4—Samples (at solid state) sealed under nitrogen in amber glass bottles, subject to forced illumination. • 3.x.5—Samples (in solution) sealed under nitrogen in amber glass bottles, illuminated under ambient laboratory conditions. • 3.x.6—Samples (in solution) sealed under nitrogen in amber glass bottles, subject to forced illumination.

[2] = Photostability at solid state (chemical purity by HPLC after illumination); format: physicochemical; conditions: for HPLC peak area, QTX125 RRT 1.00 / HPLC peak area, RRT 1.04 / HPLC peak area, RRT 1.12 / degradation (in words) / colour change of the solid material: solid-state; for degradation (in words): up to 171 hours
Description: as §1, §2, §3

[3] = sealed under nitrogen in amber glass bottles, ambient laboratory conditions, 0 hours
[4] = sealed under nitrogen in amber glass bottles, ambient laboratory conditions, 3 hours
[5] = sealed under nitrogen in amber glass bottles, ambient laboratory conditions, 50 hours
[6] = sealed under nitrogen in amber glass bottles, ambient laboratory conditions, 171 hours
[7] = sealed under nitrogen in amber glass bottles, forced illumination, 171 hours
[8] = sealed under nitrogen in clear glass bottles, forced illumination
[9] = sealed under nitrogen in clear glass bottles, forced illumination, 0 hours
[10] = sealed under nitrogen in clear glass bottles, forced illumination, 3 hours
[11] = sealed under nitrogen in clear glass bottles, forced illumination, 50 hours
[12] = sealed under nitrogen in clear glass bottles, forced illumination, 171 hours
[13] = unsealed clear glass bottles, forced illumination
[14] = unsealed clear glass bottles, forced illumination, 0 hours
[15] = unsealed clear glass bottles, forced illumination, 3 hours
[16] = unsealed clear glass bottles, forced illumination, 50 hours
[17] = unsealed clear glass bottles, forced illumination, 171 hours

SMILES: NCCCC[C@H](N)C(=O)O.NCCCC[C@H](N)C(=O)O.O=C(NO)c1ccc(CNC(=O)c2[nH]c(-c3ccc(O)cc3)cc2-c2ccoc2)cc1 [QTX125 1:2 L-Lysine adduct]
- HPLC peak area, RRT 1.12 ([1]; in solution (THF and water), sealed under nitrogen in amber glass bottles, forced illumination, 171 hours): 1.17%
- degradation (in words) ([1]; in solution (THF and water), sealed under nitrogen in amber glass bottles, forced illumination, up to 171 hours): degrades
- photostability as compared to amorphous QTX125 and Form 2 ([1]; in solution, amber glass bottles, ambient laboratory conditions, 171 hours): enhanced photostability
- photostability as compared to amorphous QTX125 or Form 2 ([1]; in solution, amber glass bottles, forced illumination, 171 hours): enhanced photostability
- photostability as compared to both QTX125 Form 2 and amorphous QTX125 ([1]; stored in solution (conclusion)): improved photostability
- photostability as compared to amorphous QTX125 ([2]; at solid state): enhanced photostability; also recorded: improved photostability
- HPLC peak area, QTX125 RRT 1.00 [2, 3]: 96.83%
- HPLC peak area, RRT 1.04 [2, 3]: 1.15%
- HPLC peak area, QTX125 RRT 1.00 [2, 4]: 96.82%
- HPLC peak area, RRT 1.04 [2, 4]: 1.21%
- HPLC peak area, QTX125 RRT 1.00 [2, 5]: 97.84%
- HPLC peak area, RRT 1.04 [2, 5]: 0.58%
- HPLC peak area, QTX125 RRT 1.00 [2, 6]: 97.29%
- HPLC peak area, RRT 1.04 [2, 6]: 1.30%
- HPLC peak area, RRT 1.12 [2, 6]: 0.35%
- degradation (in words) ([2]; sealed under nitrogen in amber glass bottles, ambient laboratory conditions): little evidence of degradation
- HPLC peak area, QTX125 RRT 1.00 [2, 7]: 96.27%
- HPLC peak area, RRT 1.04 [2, 7]: 1.74%
- HPLC peak area, RRT 1.12 [2, 7]: 0.59%
- degradation (in words) ([2]; sealed under nitrogen in amber glass bottles, forced illumination): degrades slightly
- colour change of the solid material [2, 8]: A change in the colour of the solid material was not identified
- HPLC peak area, QTX125 RRT 1.00 [2, 9]: 96.83%
- HPLC peak area, RRT 1.04 [2, 9]: 1.15%
- HPLC peak area, QTX125 RRT 1.00 [2, 10]: 95.57%
- HPLC peak area, RRT 1.04 [2, 10]: 1.90%
- HPLC peak area, RRT 1.12 [2, 10]: 0.65%
- HPLC peak area, QTX125 RRT 1.00 [2, 11]: 89.67%
- HPLC peak area, RRT 1.04 [2, 11]: 5.79%
- HPLC peak area, RRT 1.12 [2, 11]: 2.74%
- HPLC peak area, QTX125 RRT 1.00 [2, 12]: 85.21%
- HPLC peak area, RRT 1.04 [2, 12]: 9.04%
- HPLC peak area, RRT 1.12 [2, 12]: 3.94%
- degradation (in words) [2, 8]: degrades under forced illumination to two principal components
- colour change of the solid material [2, 13]: A change in the colour of the solid material was not identified
- HPLC peak area, QTX125 RRT 1.00 [2, 14]: 96.83%
- HPLC peak area, RRT 1.04 [2, 14]: 1.15%
- HPLC peak area, QTX125 RRT 1.00 [2, 15]: 95.51%
- HPLC peak area, RRT 1.04 [2, 15]: 1.98%
- HPLC peak area, QTX125 RRT 1.00 [2, 16]: 88.96%
- HPLC peak area, RRT 1.04 [2, 16]: 6.16%
- HPLC peak area, RRT 1.12 [2, 16]: 3.08%
- HPLC peak area, QTX125 RRT 1.00 [2, 17]: 84.14%
- HPLC peak area, RRT 1.04 [2, 17]: 9.20%
- HPLC peak area, RRT 1.12 [2, 17]: 4.38%
- degradation (in words) [2, 13]: degrades under forced illumination to two principal components
